The values that follow come from publication PMC7767381, “Exploring the Anti-Cancer Mechanism of Novel 3,4′-Substituted Diaryl Guanidinium Derivatives” (Pharmaceuticals, 2020).

In test [1] the test system is HL-60 cells. As to the kind of experiment: alamarBlue cell viability assay, HL-60. The test is classed as cell-based. The following applies: Homo sapiens, HL-60, 72 h, read-out: HL-60 IC50 ± SEM. An excerpt: (§1) Cell viability and proliferation assays were used to evaluate the in vitro cytotoxicity of all synthesised compounds in a variety of different cancer cell lines using the alamarBlue® viability assay and the results are presented in Table 1 and Table 2. The sensitivity of cancer cells to drugs can often be compromised by PIK3CA, Ras and BRAF mutations. To determine whether such mutations are critical to the efficacy of our new compounds we tested them in a range of cancerous cell lines expressing different mutations. Firstly, we used the HL-60 (human promyelocytic leukaemia, NRas mutated) cell line for general cytotoxicity screening of all compounds. […] Lastly, toxicity against MCF-10A, which is a non-tumorigenic epithelial cell line, was also assessed for one of the most promising compounds (4). The graphs representing the viability results with the HL-60, MCF-7, HeLa, HCT-116, and HKH-2 cancer cell lines for compound 1 and derivatives 2, 3, and 4 are shown in Figures S7–S10 (ESI).
Cells were counted and seeded in 96-well plates at a density of 2 × 10^5 cells/mL for HL-60, 2.5 × 10^4 cells/mL for MCF-7, MCF10A and HeLa, 1 × 10^5 cells/mL for HCT116 and HKH-2, all of them in their respective media. The 96-well plates were then treated with a 1:100 dilution of stock concentrations of drugs or EtOH (1% v/v)/DMSO (0.1% v/v) as vehicle control in triplicate. Three blank wells containing 200 µL RPMI with no cells were also set-up as blanks. After a 72 h incubation, 20 µL of alamarBlue was added to each well. The plates were incubated in darkness at 37 °C for 4–5 h using a Molecular Devices microplate reader, the fluorescence (F) was then read at an excitation wavelength of 544 nm and an emission wavelength of 590 nm. Cell viability was then determined by subtracting the mean blank fluorescence (Fb) from the treated sample fluorescence (Fs) and expressing this as a percentage of the fluorescence of the blanked vehicle control (Fc). […] The results were then plotted as a nonlinear regression, sigmoidal dose-response curves on Prism, from which the IC50 value for each drug was determined. […]
Pharmacy, TCD. It was maintained in Roswell Park Memorial Institute (RPMI) 1640 medium with stable glutamate (GlutaMax I) supplemented with 10% (v/v) fetal bovine serum (FBS), 1% (v/v) penicillin/ streptomycin (pen-strep) and 2 mM L-glutamine. […]
(§2) 4.4. AlamarBlue ® Cell Viability Assay
Cells were counted and seeded in 96 well plates at a density of 2 × 10^5 cells/mL for HL-60, 2.5× 10^4 cells/mL for MCF-7, MCF10A and HeLa, 1 × 10^5 cells/mL for HCT116 and HKH-2, all of them in their respective media. The 96 well plates were then treated with a 1:100 dilution of stock concentrations of drugs or EtOH (1% v/v)/DMSO (0.1% v/v) as vehicle control in triplicate.
Three blank wells containing 200 µL media with no cells were also set-up as blanks. After a 72 h incubation, 20 µL of AlamarBlue was added to each well. The plates were incubated in darkness at 37 °C for 4-5 h. Using a Molecular Devices microplate reader, the fluorescence (F) was then read at an excitation wavelength of 544 nm and an emission wavelength of 590 nm.
Cell viability was then determined by subtracting the mean blank fluorescence (Fb) from the treated sample fluorescence (Fs) and expressing this as a percentage of the fluorescence of the blanked vehicle control (Fc). […] The results were […]
then plotted as a nonlinear regression, sigmoidal dose-response curves on Prism, from which the IC50 value for each drug was determined.
Fs − Fb x 100 = % Cell Viability
60 cell line in a dose-dependent manner.
(1 picture or pasted object on this page, not shown here)
Background: Alamar Blue is a resazurin reagent that responds to reducing activity.

Test [2] deals with MCF-7 cells. As to the kind of experiment: alamarBlue cell viability assay, MCF-7. The test is classed as cell-based. The following applies: Homo sapiens, MCF7, 72 h, read-out: MCF-7 IC50 ± SEM.
Description: as §1
(§3) Cells were counted and seeded in 96-well plates at a density of 2 × 10^5 cells/mL for HL-60, 2.5 × 10^4 cells/mL for MCF-7, MCF10A and HeLa, 1 × 10^5 cells/mL for HCT116 and HKH-2, all of them in their respective media. The 96-well plates were then treated with a 1:100 dilution of stock concentrations of drugs or EtOH (1% v/v)/DMSO (0.1% v/v) as vehicle control in triplicate. Three blank wells containing 200 µL RPMI with no cells were also set-up as blanks. After a 72 h incubation, 20 µL of alamarBlue was added to each well. The plates were incubated in darkness at 37 °C for 4–5 h using a Molecular Devices microplate reader, the fluorescence (F) was then read at an excitation wavelength of 544 nm and an emission wavelength of 590 nm. Cell viability was then determined by subtracting the mean blank fluorescence (Fb) from the treated sample fluorescence (Fs) and expressing this as a percentage of the fluorescence of the blanked vehicle control (Fc). […] The results were then plotted as a nonlinear regression, sigmoidal dose-response curves on Prism, from which the IC50 value for each drug was determined.
(§4) The MCF-7 (human breast tumour) cell line was obtained from Prof. Mary Meegan, School of Pharmacy, TCD. It was maintained in Roswell Park Memorial Institute (RPMI) 1640 medium with stable glutamate (GlutaMax I) supplemented with 10% (v/v) fetal bovine serum (FBS), 1% (v/v) penicillin/ streptomycin (pen-strep) and 2 mM L-glutamine.
(§5) The HeLa (human epitheloid cervix carcinoma) cell line was obtained from Prof. Thorfinnur Gunnlaugsson, School of Chemistry TCD. It was maintainedin Dulbecco's Modified Eagle's Medium (DMEM) supplemented with 10% (v/v) fetal bovine serum (FBS) and 1%(v/v) penicillin/ streptomycin (pen-strep).
(§6) The HCT116and HKH-2 (human colon cancer cells) cell lines were obtained from Prof. James Murray, School of Biochemistry and Immunology TCD. They were maintainedin Dulbecco's Modified Eagle's Medium (DMEM) supplemented with 10% (v/v) fetal bovine serum (FBS), 1% (v/v) penicillin/ streptomycin (pen-strep), 1% (v/v) sodium pyruvate (NaPyr), 1% (v/v) L-glutamine (L-Glu) and, only for HKH-2, 0.6 mg/mL geneticine (G418).
MCF-10A (human breast epithelial) cell line was obtained from Prof. Mary Meegan, School of Pharmacy, TCD. It was cultured in Dulbecco’s Modified Eagle Medium/Nutrient Mixture F-12 (DMEM/F12; Gibco) supplemented with 5% horse serum (Invitrogen), 20 ng/mL epidermal growth factor (Merck Millipore), 0.5 μg/mL hydrocortisone (Sigma), 100 ng/mL cholera toxin (Sigma), 10 μg/mL insulin (Sigma), and penicillin/streptomycin (1% v/v) (Gibco).
as §2
Cells were counted and seeded in 96 well plates at a density of 2 × 10^5 cells/mL for HL-60, 2.5× 10^4 cells/mL for MCF-7, MCF10A and HeLa, 1 × 10^5 cells/mL for HCT116 and HKH-2, all of them in their respective media. The 96 well plates were then treated with a 1:100 dilution of stock concentrations of drugs or EtOH (1% v/v)/DMSO (0.1% v/v) as vehicle control in triplicate. […]

For test [3], the system named is BRAF. More on the design: method as in PMID 24858546, PMID 26318998. The following applies: cited from earlier work.
Test [4] concerns HeLa cells. As to the kind of experiment: alamarBlue cell viability assay, HeLa. The test is classed as cell-based. As to conditions: Homo sapiens, 72 h, read-out: HeLa IC50 ± SEM.
Description: as §1, §3, §4, §5, §6
(§7) MCF-10A (human breast epithelial) cell line was obtained from Prof. Mary Meegan, School of Pharmacy, TCD. […]
(§8) Cells were counted and seeded in 96 well plates at a density of 2 × 10^5 cells/mL for HL-60, 2.5× 10^4 cells/mL for MCF-7, MCF10A and HeLa, 1 × 10^5 cells/mL for HCT116 and HKH-2, all of them in their respective media. […]

Test [5] has as its system HCT116 cells. Briefly: alamarBlue cell viability assay, HCT116. In kind it is cell-based. The following applies: Homo sapiens, HCT-116, 72 h, KRas mutant, read-out: HCT116 IC50 ± SEM.
Description: as §1, §3, §4, §5, §6, §7, §8

Test [6] has as its system HKH-2 cells. As to the kind of experiment: alamarBlue cell viability assay, HKH-2. The test is classed as cell-based. As to conditions: Homo sapiens, 72 h, mutated KRas disrupted, read-out: HKH-2 IC50 ± SEM.
Description: as §1, §3, §4, §5, §6, §7, §8

In test [7] the test system is HL-60 cells. More on the design: method as in PMID 24858546. As to conditions: alamarBlue; previously tested compound; read-out: HL-60 IC50 ± SEM; cited from earlier work.
Test [8] relates to ERK phosphorylation (MAPK/ERK pathway). As to the kind of experiment: Western immunoblot of ERK phosphorylation in HL-60 extracts. As to conditions: HL-60, 5 and 10 μM, 16 h. The test is classed as cell-based, human. On the procedure: Thus, using Western immunoblot analysis of HL-60 extracts, we investigated the expression and phosphorylation levels of ERK (as an indication of ERK activation), which is the downstream effector of the Ras/BRAF signalling pathway (Figure 6).
HL60s were seeded in T25 flasks at 50 × 10^4 cells/mL and cells were treated with either vehicle [0.5% EtOH (v/v)], 1–4, 9 or 52 (5 µM), as well as 1 (10 µM as reported). After 16 h, cells were collected and washed with PBS. Cell pellets were re-suspended in cold cell lysis buffer (radio-immunoprecipitation assay buffer) supplemented with 1% phosphatase inhibitor cocktail 2 and 3 (Sigma) and 10% protease inhibitor (Roche). Cells were lysed for 30 min on ice. Protein concentration was then determined by BCA assay. Lysates were boiled with Laemmli sample buffer [Tris-HCL 50 mM (pH 6.7), glycerol 10% (w/v), sodium dodecyl sulphate 2% (w/v), bromophenol blue 0.02% (w/v)] containing DTT […] for 10 min at 90 °C. Moreover, 20 µg of lysates were resolved by sodium dodecyl sulphate polyacrylamide gel electrophoresis (SDS-PAGE) and transferred onto PVDF transfer membrane (EMD Millipore). Membranes were blocked with 5% non-fat milk and probed with primary antibodies for ERK and phospho-ERK (Cell Signalling). Anti-GAPDH was used as a loading control (Calbiochem).
Figure 6 Western immunoblot of HL-60 cell extracts following incubation with compounds 2, 3, 4, 9, 52 and 1 (as a control). HL60 cells were seeded at 2 × 10^5 cells/mL and were treated with either vehicle [0.5% EtOH (v/v)], compounds 52, 2, 9, 3 and 4 (5 µM) or compound 1 (5 and (*) 10 µM, as in reference) for 16 h. Cells were lysed and equal amounts of protein were loaded and separated on 15% SDS-PAGE gels, transferred to PVDF membrane and probed with antibodies against total and phosphorylated ERK. Anti-GAPDH was used as a loading control. Results are representative of 2 independent experiments.
HL-60 cells were seeded in T25 flasks at 50 x10^4 cells/mL and treated with either vehicle [0.5% […]
After 16 hours, cells were […]
collected and washed with PBS. Cell pellets were re-suspended in cold cell lysis buffer (radio-immunoprecipitation assay buffer) supplemented with 1% phosphatase inhibitor cocktail 2 and 3 (Sigma) and 10% protease inhibitor (Roche). Cells were lysed for 30 minutes on ice.
Protein concentration was then determined by BCA assay. Lysates were boiled with laemmli sample buffer [Tris-HCL 50 mM (pH 6.7), glycerol 10% (w/v), sodium dodecyl sulphate 2% (w/v), bromophenol blue 0.02% (w/v)] containing DTT […] for 10 min. at 90 °C. Also 20 µg of lysates were resolved by sodium dodecyl sulphate polyacrylamide gel electrophoresis (SDS - PAGE) and transferred onto PVDF transfer membrane (EMD Millipore). Membranes were blocked with 5% non-fat milk and probed with primary antibodies for ERK and phospho-ERK (Cell Signaling). Anti-GAPDH was used as a loading control (Calbiochem).
(In general: A western blot detects proteins with antibodies after separation by electrophoresis.)

The test system of test [9] is BRAF. More on the design: method as in PMID 24858546, PMID 26318998. The following applies: in vitro; cited from earlier work.

As usually defined, the IC50 is the concentration needed to halve the response being measured.

“Also recorded” adds a separate entry of the source. Counter-ions that a name gives are not always drawn. Like-named read-outs stand apart in the source and are kept apart here.

With `N=C(N)Oc1ccc(Oc2cccc(Nc3ccc(Cl)c(C(F)(F)F)c3)c2)cc1` [Compound 70, 4-(3-((4-Chloro-3-(trifluoromethyl)phenyl)amino)phenoxy)phenyl carbamimidate hydrochloride], the IC50 in [1] (alamarBlue, 72 h) is 4.22 ± 0.04 µM; in test [2], 7.32 ± 0.35 µM.

With `N=C(N)Nc1ccc(Oc2cccc(NC(=N)Nc3ccc(Cl)c(C(F)(F)F)c3)c2)cc1` [Compound 1], in test [3], the “inhibition of ATP binding to BRAF” value is “did not inhibit ATP binding to BRAF”. Moreover, the IC50 is 9.48 ± 0.16 µM in test [4]; 9.96 ± 0.6 µM in test [5]; 19.2 ± 0.84 µM in [6]; 9.72 ± 0.9 µM in test [7]; 9.3 ± 1.87 µM in test [2]. Also, the “effect on ERK phosphorylation (Ras/BRAF pathway)” value in test [8] is recorded as “inhibiting ERK phosphorylation; also recorded: abrogates ERK activation”. For the same compound, the “BRAF activity in radiometric assay” value in test [9] is listed as “inhibited in vitro”.

`CNC(=O)c1cc(Oc2ccc(NC(=O)Nc3ccc(Cl)c(C(F)(F)F)c3)cc2)ccn1` [Sorafenib, reference compound]: the IC50 in test [4] is 4.59 ± 0.45 µM; in test [5] it was 6.79 ± 0.18 µM; in test [1], 2.53 ± 0.68 µM; in [6], 4.43 ± 0.39 µM; in test [2], 3.07 ± 0.1 µM.
